Values of other authors in patent US20040121305A1, “Generation of efficacy, toxicity and disease signatures and methods of use thereof” (priority 2002, published 2004).

Conditions: known toxins to be used for toxicity signature generation; organs known to be targeted

Molecule	Target organ/organ system
Clc1cc(Cl)c(-c2cc(Cl)c(Cl)cc2Cl)cc1Cl [2,2′,4,4′,5,5′-hexachlorobiphenyl]	liver
Clc1cc2c(cc1Cl)Oc1cc(Cl)c(Cl)cc1O2 [2,3,7,8-tetrachlorodibenzo-p-dioxin]	liver
NCCBr [2-bromoethylamine (BEA), 2-bromoethylamine]	kidney
Cc1ccc2cc3c(ccc4ccccc43)c3c2c1CC3 [3-methylcholanthrene]	liver
Nc1ccc(O)cc1 [4-aminophenol (PAP), 4-aminophenol]	kidney
Cc1cccc(Nc2cc(Cl)nc(SCC(=O)O)n2)c1C [Wy-16,463]	liver
CC(=O)Nc1ccc(O)cc1 [acetaminophen]	kidney
C=CCO [allyl alcohol]	liver
C[C@@H]1[C@H](O)[C@@H](C)/C=C/C=C/C=C/C=C/C=C/C=C/C=C/[C@H](O[C@@H]2O[C@H](C)[C@@H](O)[C@H](N)[C@@H]2O)C[C@@H]2O[C@](O)(C[C@@H](O)C[C@@H](O)[C@H](O)CC[C@@H](O)C[C@@H](O)CC(=O)O[C@H]1C)C[C@H](O)[C@H]2C(=O)O [amphotericin B]	blood; cardiovascular system; kidney; liver
[AsH3] [arsenic]	liver
CC(=O)Oc1ccccc1C(=O)O [aspirin]	cardiovascular system; kidney
COc1ccc(CCN2CCC(Nc3nc4ccccc4n3Cc3ccc(F)cc3)CC2)cc1 [astemizole]	cardiovascular system
c1ccccc1 [benzene]	blood
[Cd] [cadmium]	kidney; liver; nervous system; respiratory system
NC(=O)N1c2ccccc2C=Cc2ccccc21 [carbamezipine]	blood; liver; reproductive system
CC(C)(Oc1ccc(C2CC2(Cl)Cl)cc1)C(=O)O (stereo not drawn) [ciprofibrate (cipro), ciprofibrate]	liver
CCOC(=O)C(C)(C)Oc1ccc(Cl)cc1 [clofibrate]	muscle
[Cl][Co][Cl] [cobalt chloride]	liver
CCN(CC)N=O [diethylntrosamine]	liver
CNNC [dimethylhydrazine (DMH), dimethylhydrazine]	liver
Cc1ccc(C)c(OCCCC(C)(C)C(=O)O)c1 [gamfibrozil]	muscle
Nc1nc(O)c2ncn(COC(CO)CO)c2n1 [ganciclovir]	blood; liver
ClC(Cl)=C(Cl)C(Cl)=C(Cl)Cl [hexachloro-1,3-butediene (HCBD), hexachloro-1,3-butediene]	kidney

Molecule	Target organ/organ system
NN [hydrazine]	liver
CC(=O)[O-].CC(=O)[O-].[Pb+2] [lead acetate (PbAc), lead acetate]	liver, kidney
[Cl][Hg][Cl] [mercury(II) chloride (HgCl2), mercury(II) chloride]	kidney
CN(C)CCN(Cc1cccs1)c1ccccn1 [methapyrilene]	liver
CN(Cc1cnc2nc(N)nc(N)c2n1)c1ccc(C(=O)N[C@@H](CCC(=O)O)C(=O)O)cc1 [methotrexate]	liver
[N]=O [nitric oxide]	respiratory system; cardiovascular
Cc1nccn1CC1CCc2c(c3ccccc3n2C)C1=O (stereo not drawn) [ondansetron]	liver
NNc1ccccc1 [phenylhydrazine (phenylhyrzn), phenylhydrazine]	liver
CC[C@H](C)C(=O)O[C@H]1C[C@H](O)C=C2C=C[C@H](C)[C@H](CC[C@@H](O)C[C@@H](O)CC(=O)O)[C@H]21 [pravastatin]	cardiovascular system; liver
COc1cc(N)c(Cl)cc1C(=O)NC1CCN(CCCOc2ccc(F)cc2)CC1OC (stereo not drawn) [propulsid]	cardiovascular system
CN(C)c1ncnc2c1ncn2[C@@H]1O[C@H](CO)[C@@H](N)[C@H]1O [puromycin aminonucleoside (PAN), puromycin aminonucleoside]	liver; kidney
[F-].[Na+] [sodium fluoride (NaF), sodium fluoride]	liver
CC(=N)S [thioacetamide]	liver; kidney
Cc1cccc(C)c1NC(=O)C(C)N (stereo not drawn) [tocainidine]	cardiovascular system
Cc1c(C)c2c(c(C)c1O)CCC(C)(COc1ccc(CC3SC(=O)NC3=O)cc1)O2 (stereo not drawn) [troglitazone]	liver
CCCC(CCC)C(=O)O [valproic acid]	reproductive system
CC[C@]1(O)C[C@H]2CN(CCc3c([nH]c4ccccc34)[C@@](C(=O)OC)(c3cc4c(cc3OC)N(C=O)[C@H]3[C@@](O)(C(=O)OC)[C@H](OC(C)=O)[C@]5(CC)C=CCN6CC[C@]43[C@@H]65)C2)C1 [vincristine]	nervous system; cardiovascular system; reproductive
Cc1cn([C@H]2C[C@H](N=[N+]=[N-])[C@@H](CO)O2)c(=O)[nH]c1=O [zidovudine (AZT), zidovudine]	blood; liver
S=C=Nc1cccc2ccccc12 [α-naphthyl isothiocyanate (ANIT), α-naphthyl isothiocyanate]	liver
O=c1cc(-c2ccccc2)oc2ccc3ccccc3c12 [β-naphthoflavone (BNF), β-naphthoflavone]	liver
corvastatin	cardiovascular system; liver
interleukin-6 (IL-6): interleukin-6, listed as a known toxin targeting the liver	liver
